As a reminder, the pKi is the Ki on a negative log10 scale, so that one unit is a factor of ten.

The source of these data is patent publication US6933287B1, “Dramatic simplification of a method to treat neoplastic disease by radiation” (priority 1999, dated 2005).

For data set [1], the target named is T1, thymidylate synthetase (Lacticaseibacillus casei, UniProt P00469). To be noted: read-out: Ki for the inhibition of thymidylate synthetase; cited from earlier work.
For data set [2], the target named is T1, thymidylate synthetase. To be noted: cited from earlier work.
For data set [3], the system named is radiation induced fibrosarcoma, RIF-1. To be noted: toxic doses of CldC; cited from earlier work.
Data set [4] can be described thus: Half life of CldC with H4U in monkeys. It counts as in vivo. To be noted: effect of H4U. The text has this:
(§1) Furthermore, CldC plus H4U was not toxic to dogs or monkeys. In monkeys and mice, H4U increased the half life of CldC. This is a very important indicator of the efficacy of CldC plus H4U in the treatment of diseases, in particular tumors in humans.

Data set [5] can be described thus: Half life of CldC with H4U in mice. Type of data set: in vivo. The settings on record: effect of H4U.
Excerpt: as §1

pKi: −log10 of the molar value.

T1 sequence (P00469 whole entry): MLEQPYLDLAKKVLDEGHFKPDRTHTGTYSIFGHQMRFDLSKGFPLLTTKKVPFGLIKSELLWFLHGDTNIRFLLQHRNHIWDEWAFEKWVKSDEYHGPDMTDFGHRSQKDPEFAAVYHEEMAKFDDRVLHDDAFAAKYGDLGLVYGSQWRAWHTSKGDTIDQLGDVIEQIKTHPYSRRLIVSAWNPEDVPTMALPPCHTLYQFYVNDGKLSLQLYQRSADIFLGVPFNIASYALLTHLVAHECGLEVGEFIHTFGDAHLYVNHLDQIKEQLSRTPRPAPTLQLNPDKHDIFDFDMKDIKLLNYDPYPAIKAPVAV

With `O=c1[nH]c(=O)n([C@H]2C[C@H](O)[C@@H](COP(=O)(O)O)O2)cc1F` [FdUMP], in data set [1], the pKi was 7.82.

With `O=c1[nH]c(=O)n([C@H]2C[C@H](O)[C@@H](COP(=O)(O)O)O2)cc1Cl` [CldUMP], the negative logarithm of the Ki (pKi) in data set [1] was 6.72. Further, in data set [2], the “dehalogenation by thymidylate synthetase” value is reported as “not dehalogenated”. As to `Nc1nc(=O)n([C@H]2C[C@H](O)[C@@H](CO)O2)cc1Cl` [CldC, 5-chloro-2′-deoxycytidine], the dose enhancement ratio in data set [3] is reported as 1.6. With `O=C1NC(O)CCN1[C@@H]1O[C@H](CO)[C@@H](O)[C@H]1O` (some centres unmarked) [H4U, tetrahydrouridine], the “half life of CldC” value in data set [4] and in data set [5] was “increased” in each case. On to `O=c1[nH]c(=O)n([C@H]2C[C@H](O)[C@@H](COP(=O)(O)O)O2)cc1Br` [BrdUMP], for which the pKi in data set [1] was 5.85.

Consider `O=c1[nH]c(=O)n([C@H]2C[C@H](O)[C@@H](COP(=O)(O)O)O2)cc1I` [IdUMP], for which the pKi in data set [1] was 5.80.
